Results as given in ChEMBL document CHEMBL1135986, “Corrigendum to Synthesis and anti-angiogenic activity of 6-(1,2,4-thiadiazol-5-yl)-3-amino pyridazine derivatives [Bioorg. Med. Chem. Lett. 12 (2002) 589]” (Bioorg Med Chem Lett, 2002).

Columns and labels:
[1] = Ocular toxicity was assessed after oral dosing at 40 mg/Kg b.i.d. for 4 days in male Wistar rats; No; conditions: rat, in vivo, 96 h
Mus musculus = assay: In vivo percentage inhibition of 3LL Lewis Lung tumor mets formation were measured after oral dosing b.i.d. for 28 days to B6D2F1 mice at a dose of 15 mg/kg b.i.d; assay type: functional; conditions: 672 h
[2] = Ocular toxicity was assessed after oral dosing at 40 mg/Kg b.i.d. for 4 days in male Wistar rats; Yes; conditions: rat, in vivo, 96 h
[3] = Ocular toxicity was assessed after oral dosing at 40 mg/Kg b.i.d. for 4 days in male Wistar rats; Very weak; conditions: rat, in vivo, 96 h

Compound	Eye toxicity [1]	inhibition in vivo at 15 mg/kg (Mus musculus) [%]	Eye toxicity [2]	other results
CN(C)c1nsc(-c2ccc(N3CCN(c4cc(C(F)(F)F)cc(C(F)(F)F)c4)CC3)nn2)n1	No toxicity	13	–	–
FC(F)(F)c1cccc(NC2CCN(c3ccc(-c4ncns4)nn3)CC2)c1	No toxicity	42	–	–
FC(F)(F)c1cc(N2CCN(c3ccc(-c4ncns4)nn3)CC2)cc(C(F)(F)F)c1	No toxicity	24	–	–
Cc1nsc(-c2ccc(N3CCN(c4cc(Cl)cc(Cl)c4)CC3)nn2)n1	–	–	Yes	–
Cc1nsc(-c2nccc(N3CCN(c4cccc(C(F)(F)F)c4)CC3)n2)n1	No toxicity	–	–	–
Cc1nsc(-c2ccc(N3CCN(c4cccc(Cl)c4)CC3)nn2)n1	–	–	Yes	–
Nc1nsc(-c2ccc(N3CCN(c4cccc(C(F)(F)F)c4)CC3)nn2)n1	No toxicity	–	–	–
Cc1nsc(-c2ccc(N3CCN(c4cccc(C(F)(F)F)c4)CC3)cc2)n1	No toxicity	–	–	–
FC(F)(F)c1cccc(N2CCN(C3CCN(c4ccc(-c5ncns5)nn4)CC3)CC2)c1	No toxicity	54	–	–
Cc1nsc(-c2ccc(N3CCN(c4cccc(C(F)(F)F)c4)CC3)nn2)n1	–	–	Toxicity	–
FC(F)(F)c1cccc(N2CCN(c3ccc(-c4ncns4)nn3)CC2)c1	No toxicity	–	–	–
CN(C)c1nsc(-c2ccc(N3CCC(N4CCN(c5cccc(C(F)(F)F)c5)CC4)CC3)nn2)n1	–	25	–	Eye toxicity [3]: Very weak toxicity
CNc1nsc(-c2ccc(N3CCN(c4cccc(C(F)(F)F)c4)CC3)nn2)n1	No toxicity	–	–	–
Cc1nsc(-c2ccc(N3CCN(c4cccc([N+](=O)[O-])c4)CC3)nn2)n1	–	–	Yes	–
Cc1nsc(-c2ccc(N3CCN(c4ccccc4C(F)(F)F)CC3)nn2)n1	–	–	Yes	–
CCc1nsc(-c2ccc(N3CCN(c4cccc(C(F)(F)F)c4)CC3)nn2)n1	No toxicity	–	–	–
Cc1nsc(-c2ccc(N3CCN(c4cc(C(F)(F)F)cc(C(F)(F)F)c4)CC3)nn2)n1	–	–	Yes	–
CN(C)c1nsc(-c2ccc(N3CCN(c4cccc(C(F)(F)F)c4)CC3)nn2)n1	No toxicity	39	–	–
Cc1nsc(-c2ccc(N3CCN(c4cccc(C(F)(F)F)c4)CC3)nc2)n1	No toxicity	–	–	–
